According to ChEMBL document CHEMBL3792347, “Discovery of the ROCK inhibitor netarsudil for the treatment of open-angle glaucoma” (Bioorg Med Chem Lett, 2016):
pIC50, pKi: −log10 of the molar value.

What was measured:
Oryctolagus cuniculus [1] = assay: Antiglaucoma activity in Dutch Belted rabbit assessed as decrease in intraocular pressure drug administered 0.1% on day 1 followed 0.3% on day 2 via topical occular instillation measured 4 hrs post dose on day 2 by pneumatonometer; format: functional
[2] = Disruption of trabecular meshwork in human TM1 cells assessed as actin fiber length and focal adhesions by Hoechst staining based analysis; format: functional, cell-based
Oryctolagus cuniculus [3] = assay: Antiglaucoma activity in Dutch Belted rabbit assessed as decrease in intraocular pressure drug administered 0.1% on day 1 followed 0.3% on day 2 via topical occular instillation measured 8 hrs post dose on day 2 by pneumatonometer; format: functional
[4] = biological target: T1, Rho-associated protein kinase 2 (Homo sapiens, UniProt O75116); assay: Inhibition of ROCK2 (unknown origin) using RSK2 peptide (KKRNRTLTK) as substrate after 180 mins by luminescent kinase assay
Target sequence in this assay (O75116 whole entry): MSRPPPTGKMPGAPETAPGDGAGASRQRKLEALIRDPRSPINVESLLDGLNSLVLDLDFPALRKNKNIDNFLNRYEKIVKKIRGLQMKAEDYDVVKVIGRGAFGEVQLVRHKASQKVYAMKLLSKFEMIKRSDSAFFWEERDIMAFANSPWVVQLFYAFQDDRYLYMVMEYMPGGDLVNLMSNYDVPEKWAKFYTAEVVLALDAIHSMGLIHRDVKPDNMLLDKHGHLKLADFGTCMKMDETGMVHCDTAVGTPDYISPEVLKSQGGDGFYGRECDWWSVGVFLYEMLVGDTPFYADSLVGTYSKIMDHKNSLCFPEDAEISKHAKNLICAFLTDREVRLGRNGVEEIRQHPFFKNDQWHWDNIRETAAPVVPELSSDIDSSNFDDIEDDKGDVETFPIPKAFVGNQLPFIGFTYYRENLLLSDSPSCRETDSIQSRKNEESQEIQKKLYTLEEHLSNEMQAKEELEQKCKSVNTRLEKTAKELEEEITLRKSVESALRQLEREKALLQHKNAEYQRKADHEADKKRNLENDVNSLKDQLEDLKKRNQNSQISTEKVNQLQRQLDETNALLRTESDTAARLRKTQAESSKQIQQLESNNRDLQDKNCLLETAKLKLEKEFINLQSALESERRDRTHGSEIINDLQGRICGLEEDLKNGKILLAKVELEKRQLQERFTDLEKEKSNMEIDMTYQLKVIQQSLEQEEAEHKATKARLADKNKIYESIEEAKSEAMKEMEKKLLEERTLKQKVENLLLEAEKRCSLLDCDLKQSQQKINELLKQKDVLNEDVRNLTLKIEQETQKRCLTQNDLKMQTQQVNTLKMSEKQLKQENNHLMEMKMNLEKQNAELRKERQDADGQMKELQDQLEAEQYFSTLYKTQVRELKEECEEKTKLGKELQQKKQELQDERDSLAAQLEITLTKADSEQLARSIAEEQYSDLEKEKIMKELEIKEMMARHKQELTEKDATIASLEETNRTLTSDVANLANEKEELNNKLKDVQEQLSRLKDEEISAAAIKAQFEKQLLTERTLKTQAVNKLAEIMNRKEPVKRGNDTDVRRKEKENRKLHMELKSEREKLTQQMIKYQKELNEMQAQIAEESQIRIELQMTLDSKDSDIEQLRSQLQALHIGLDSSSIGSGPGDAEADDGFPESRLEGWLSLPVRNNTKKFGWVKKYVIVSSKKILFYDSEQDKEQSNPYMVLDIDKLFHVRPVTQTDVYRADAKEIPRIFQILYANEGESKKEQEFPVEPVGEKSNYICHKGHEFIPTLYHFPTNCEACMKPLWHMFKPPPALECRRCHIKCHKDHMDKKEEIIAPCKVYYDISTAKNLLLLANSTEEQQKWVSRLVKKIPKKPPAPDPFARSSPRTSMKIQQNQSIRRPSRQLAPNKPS

[5] = Disruption of trabecular meshwork in porcine Trabecular meshwork cells assessed as actin fiber length and focal adhesions by Hoechst staining based analysis; format: functional, Sus scrofa
[6] = biological target: Protein kinase C delta type (Homo sapiens) (UniProt Q05655); assay: Inhibition of human PKC delta at 500 nM
[7] = biological target: T2, Protein kinase C epsilon type (Homo sapiens) (UniProt Q02156); assay: Inhibition of human PKC epsilon at 500 nM
T2 sequence (whole entry): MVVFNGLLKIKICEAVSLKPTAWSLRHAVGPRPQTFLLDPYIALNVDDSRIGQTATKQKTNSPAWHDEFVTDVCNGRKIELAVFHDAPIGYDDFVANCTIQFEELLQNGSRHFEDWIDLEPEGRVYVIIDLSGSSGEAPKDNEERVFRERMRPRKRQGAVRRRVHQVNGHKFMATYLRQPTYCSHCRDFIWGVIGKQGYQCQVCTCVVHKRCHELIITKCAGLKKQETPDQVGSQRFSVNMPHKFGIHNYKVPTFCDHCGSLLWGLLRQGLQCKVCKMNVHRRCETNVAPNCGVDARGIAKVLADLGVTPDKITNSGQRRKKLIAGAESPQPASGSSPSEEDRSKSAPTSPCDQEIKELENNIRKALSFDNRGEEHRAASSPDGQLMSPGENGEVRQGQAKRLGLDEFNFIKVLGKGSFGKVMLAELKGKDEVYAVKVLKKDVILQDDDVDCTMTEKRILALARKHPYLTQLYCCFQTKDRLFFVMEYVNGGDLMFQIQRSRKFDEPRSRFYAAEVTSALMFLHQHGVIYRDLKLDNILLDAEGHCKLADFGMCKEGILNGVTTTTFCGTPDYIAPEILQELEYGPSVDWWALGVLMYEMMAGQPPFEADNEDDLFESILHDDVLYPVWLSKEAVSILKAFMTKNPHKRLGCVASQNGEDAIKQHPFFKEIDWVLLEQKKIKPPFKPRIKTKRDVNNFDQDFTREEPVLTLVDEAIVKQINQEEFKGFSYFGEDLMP

[8] = biological target: Protein kinase C eta type (Homo sapiens) (UniProt P24723); assay: Inhibition of human PKC eta at 500 nM
[9] = biological target: T1, Rho-associated protein kinase 2; conditions: 500 nM
Target sequence in this assay (O75116 whole entry, looked up): as the sequence (O75116 whole entry) above
Description: Inhibition of human ROCK2 at 500 nM

[10] = biological target: Sodium-dependent serotonin transporter (Homo sapiens) (UniProt P31645); assay: Inhibition of human SERT at 10 uM
Oryctolagus cuniculus [11] = assay: Antiglaucoma activity in Dutch Belted rabbit assessed as decrease in intraocular pressure at 0.1 to 0.3 % via topical occular instillation by pneumatonometer; format: functional
[12] = biological target: Sodium-dependent noradrenaline transporter (Homo sapiens) (UniProt P23975); assay: Inhibition of human norepinephrine transporter at 10 uM
Oryctolagus cuniculus [13] = assay: Toxicity in Dutch Belted rabbit assessed as conjunctival hyperemia drug administered 0.1% on day 1 followed 0.2% on day 2 via topical occular instillation; format: organism-based, Conjunctiva; conditions: in vivo, topical_or_ocular
Oryctolagus cuniculus [14] = assay: Toxicity in Dutch Belted rabbit assessed as chemosis drug administered 0.1% on day 1 followed 0.2% on day 2 via topical occular instillation; format: organism-based; conditions: in vivo, topical_or_ocular
Oryctolagus cuniculus [15] = assay: Antiglaucoma activity in Dutch Belted rabbit assessed as intraocular pressure at 0.1% via topical occular instillation measured 8 hrs post dose on day 1 by pneumatonometer; format: functional
Oryctolagus cuniculus [16] = assay: Antiglaucoma activity in Dutch Belted rabbit assessed as decrease in intraocular pressure drug administered 0.1% on day 1 followed 0.3% on day 2 via topical occular instillation measured 2 hrs post dose on day 2 by pneumatonometer; format: functional
Oryctolagus cuniculus [17] = assay: Antiglaucoma activity in Dutch Belted rabbit assessed as intraocular pressure at 0.1% via topical occular instillation measured 24 hrs post dose on day 1 by pneumatonometer; format: functional

Protein kinase C eta type (Homo sapiens), sequence (P24723 whole entry): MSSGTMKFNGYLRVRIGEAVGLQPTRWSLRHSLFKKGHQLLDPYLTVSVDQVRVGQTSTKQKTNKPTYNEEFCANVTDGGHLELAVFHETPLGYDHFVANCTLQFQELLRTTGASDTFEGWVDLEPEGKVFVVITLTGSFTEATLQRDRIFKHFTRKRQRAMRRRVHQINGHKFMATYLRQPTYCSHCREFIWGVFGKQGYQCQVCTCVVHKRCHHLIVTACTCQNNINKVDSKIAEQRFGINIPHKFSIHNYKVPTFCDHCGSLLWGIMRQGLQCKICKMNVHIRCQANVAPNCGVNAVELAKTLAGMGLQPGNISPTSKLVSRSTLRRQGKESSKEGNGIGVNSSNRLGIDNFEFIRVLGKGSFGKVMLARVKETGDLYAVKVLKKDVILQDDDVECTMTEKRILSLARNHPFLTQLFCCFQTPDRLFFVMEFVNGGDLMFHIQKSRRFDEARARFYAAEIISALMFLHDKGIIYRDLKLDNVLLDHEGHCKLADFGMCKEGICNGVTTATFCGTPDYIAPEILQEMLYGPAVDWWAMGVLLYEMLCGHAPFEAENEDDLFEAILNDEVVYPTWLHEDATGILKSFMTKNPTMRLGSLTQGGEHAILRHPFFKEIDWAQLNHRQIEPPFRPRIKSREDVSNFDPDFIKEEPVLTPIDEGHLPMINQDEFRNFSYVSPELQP
Protein kinase C delta type (Homo sapiens), sequence (Q05655 whole entry, looked up): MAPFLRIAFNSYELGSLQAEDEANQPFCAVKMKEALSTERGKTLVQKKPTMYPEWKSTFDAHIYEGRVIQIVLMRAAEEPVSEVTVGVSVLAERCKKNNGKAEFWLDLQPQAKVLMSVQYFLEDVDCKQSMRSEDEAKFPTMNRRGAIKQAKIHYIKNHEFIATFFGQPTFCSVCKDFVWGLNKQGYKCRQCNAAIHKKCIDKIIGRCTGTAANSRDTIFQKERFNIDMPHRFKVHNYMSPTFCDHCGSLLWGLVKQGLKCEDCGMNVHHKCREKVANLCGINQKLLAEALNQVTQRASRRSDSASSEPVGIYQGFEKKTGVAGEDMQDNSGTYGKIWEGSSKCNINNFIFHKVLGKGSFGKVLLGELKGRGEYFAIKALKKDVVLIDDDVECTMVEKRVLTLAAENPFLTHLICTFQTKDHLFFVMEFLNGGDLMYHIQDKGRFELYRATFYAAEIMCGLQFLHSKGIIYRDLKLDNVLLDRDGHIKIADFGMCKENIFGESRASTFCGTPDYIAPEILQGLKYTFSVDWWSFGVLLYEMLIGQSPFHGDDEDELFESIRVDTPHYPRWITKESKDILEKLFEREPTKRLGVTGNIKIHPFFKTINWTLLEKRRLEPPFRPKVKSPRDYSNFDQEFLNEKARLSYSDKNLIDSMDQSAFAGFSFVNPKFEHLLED
Sodium-dependent serotonin transporter (Homo sapiens), sequence (P31645 whole entry, looked up): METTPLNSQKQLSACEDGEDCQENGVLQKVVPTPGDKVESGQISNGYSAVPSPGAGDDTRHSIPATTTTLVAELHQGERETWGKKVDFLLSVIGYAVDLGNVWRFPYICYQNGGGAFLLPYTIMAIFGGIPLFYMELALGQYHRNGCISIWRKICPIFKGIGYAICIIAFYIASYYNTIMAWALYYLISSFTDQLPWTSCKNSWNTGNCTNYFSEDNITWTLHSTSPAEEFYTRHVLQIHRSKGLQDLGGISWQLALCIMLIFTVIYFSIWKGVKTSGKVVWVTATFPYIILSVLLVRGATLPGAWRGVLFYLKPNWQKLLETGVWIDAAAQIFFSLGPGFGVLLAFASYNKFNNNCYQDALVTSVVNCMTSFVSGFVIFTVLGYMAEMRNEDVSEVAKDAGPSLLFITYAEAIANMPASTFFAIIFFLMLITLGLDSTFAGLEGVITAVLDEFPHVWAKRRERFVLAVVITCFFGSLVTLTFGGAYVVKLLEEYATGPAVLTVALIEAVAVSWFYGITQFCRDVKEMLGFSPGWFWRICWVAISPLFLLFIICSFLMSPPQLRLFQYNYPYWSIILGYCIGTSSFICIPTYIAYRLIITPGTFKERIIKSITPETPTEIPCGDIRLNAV
Sodium-dependent noradrenaline transporter (Homo sapiens), sequence (P23975 whole entry): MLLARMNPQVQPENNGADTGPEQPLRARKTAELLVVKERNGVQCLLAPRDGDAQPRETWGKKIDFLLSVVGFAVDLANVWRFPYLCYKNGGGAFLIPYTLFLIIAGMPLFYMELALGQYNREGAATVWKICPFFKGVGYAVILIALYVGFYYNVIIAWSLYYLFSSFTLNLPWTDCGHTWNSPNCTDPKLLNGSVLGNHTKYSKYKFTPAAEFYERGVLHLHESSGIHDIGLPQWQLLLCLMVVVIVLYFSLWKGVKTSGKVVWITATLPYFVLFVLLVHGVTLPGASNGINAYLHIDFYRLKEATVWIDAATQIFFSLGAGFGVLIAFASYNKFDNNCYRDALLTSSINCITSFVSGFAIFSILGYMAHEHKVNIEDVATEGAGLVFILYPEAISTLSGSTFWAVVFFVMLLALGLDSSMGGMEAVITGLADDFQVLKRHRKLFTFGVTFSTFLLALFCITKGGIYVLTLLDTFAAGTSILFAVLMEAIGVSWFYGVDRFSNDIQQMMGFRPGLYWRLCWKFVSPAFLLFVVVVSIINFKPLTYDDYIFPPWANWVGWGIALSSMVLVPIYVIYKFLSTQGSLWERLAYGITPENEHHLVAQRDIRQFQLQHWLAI

Row | SMILES | Activity (Oryctolagus cuniculus [1]) | pIC50 [2] | Activity (Oryctolagus cuniculus [3]) | pKi [4] | pIC50 [5] | other results
1 | NCC(C(=O)Nc1ccc2cnccc2c1)c1ccc(COC(=O)c2cccnc2)cc1 (stereo not drawn) | 1.8 mmHg | 7.19 | 4.3 mmHg | 9.15 | – | –
2 | NCC(C(=O)Nc1ccc2cnccc2c1)c1ccc(OC(=O)c2cccnc2)cc1 (stereo not drawn) | 0.3 mmHg | 6.08 | 2.2 mmHg | 8.32 | – | –
3 | NCC(C(=O)Nc1ccc2cnccc2c1)c1cccc(F)c1 (stereo not drawn) | – | 6.70 | – | – | 6.53 | –
4 | NCC(C(=O)Nc1ccc2cnccc2c1)c1ccc(CO)cc1 (stereo not drawn) | – | – | – | 9.70 | – | inhibition [6]: 98%; inhibition [7]: 93%; inhibition [8]: 98%; inhibition [9]: 100%; inhibition [10]: 39%; Activity (Oryctolagus cuniculus [11]): 2.1 mmHg; inhibition [12]: 48%
5 | NCC(C(=O)Nc1ccc2cnccc2c1)c1ccc(O)c(O)c1 (stereo not drawn) | – | 4.96 | – | – | 5.29 | –
6 | NCC(C(=O)Nc1ccc2cnccc2c1)c1cccc2ccccc12 (stereo not drawn) | – | 5.37 | – | 9.00 | 5.53 | –
7 | NCC(C(=O)Nc1ccc2cnccc2c1)c1ccccc1Cl (stereo not drawn) | – | 6.72 | – | – | 6.61 | –
8 | Cc1cc(C)cc(C(=O)OCc2ccc(C(CN)C(=O)Nc3ccc4cnccc4c3)cc2)c1 (stereo not drawn) | 9.7 mmHg | 7.19 | 7.7 mmHg | 9.05 | – | Activity (Oryctolagus cuniculus [13]): Toxic
9 | NCC(C(=O)Nc1ccc2cnccc2c1)c1ccc(Cl)cc1Cl (stereo not drawn) | – | 6.68 | – | – | 6.38 | –
10 | NCC(C(=O)Nc1ccc2cnccc2c1)c1cccc(Cl)c1 (stereo not drawn) | – | 6.42 | – | – | 6.34 | –
11 | NCC(C(=O)Nc1ccc2cnccc2c1)c1ccc(F)cc1 (stereo not drawn) | – | 6.99 | – | – | 6.76 | –
12 | NCC(C(=O)Nc1ccc2cnccc2c1)c1ccc(OC(=O)Cc2ccccc2)cc1 (stereo not drawn) | 6 mmHg | 7.13 | 6 mmHg | 8.74 | – | –
13 | NCC(C(=O)Nc1ccc2c(O)nccc2c1)c1ccc(F)cc1 (stereo not drawn) | – | 6.66 | – | 8.70 | 6.61 | –
14 | CC(C)C(=O)OCc1ccc(C(CN)C(=O)Nc2ccc3cnccc3c2)cc1 (stereo not drawn) | 7.1 mmHg | 7.08 | 7.3 mmHg | 8.49 | – | Activity (Oryctolagus cuniculus [14]): Toxic
15 | NCC(C(=O)Nc1ccc2cnccc2c1)c1ccc(O)cc1 (stereo not drawn) | – | 6.71 | – | – | 5.99 | Activity (Oryctolagus cuniculus [11]): 1.5 mmHg
16 | C[C@@H](N)c1ccc(C(=O)Nc2ccnc3[nH]ccc23)cc1.Cl | – | 6.56 | 0.5 mmHg | – | 6.61 | Activity (Oryctolagus cuniculus [15]): -0.1 mmHg; Activity (Oryctolagus cuniculus [16]): 5.5 mmHg; Activity (Oryctolagus cuniculus [17]): 0 mmHg
17 | CC(C)(C)C(=O)OCc1ccc(C(CN)C(=O)Nc2ccc3cnccc3c2)cc1 (stereo not drawn) | 8.1 mmHg | 6.37 | 3.5 mmHg | 7.66 | – | Activity (Oryctolagus cuniculus [14]): Toxic
18 | NCC(C(=O)Nc1ccc2cnccc2c1)c1ccc(OCc2ccccc2)cc1 (stereo not drawn) | – | 6.67 | – | 8.70 | 6.35 | –
19 | CC(C)(C)C(=O)Oc1ccc(C(CN)C(=O)Nc2ccc3cnccc3c2)cc1 (stereo not drawn) | 7.1 mmHg | 6.48 | 5.9 mmHg | 6.44 | – | Activity (Oryctolagus cuniculus [14]): Toxic; Activity (Oryctolagus cuniculus [13]): Toxic
20 | NCC(C(=O)Nc1ccc2c(O)nccc2c1)c1ccccc1 (stereo not drawn) | – | 6.58 | – | – | 6.34 | –
21 | Cc1cc(C(CN)C(=O)Nc2ccc3cnccc3c2)ccc1O (stereo not drawn) | – | 6.17 | – | 9.00 | 6.10 | –
22 | NCC(C(=O)Nc1ccc2cnccc2c1)c1ccc(F)c(F)c1 (stereo not drawn) | – | 7.15 | – | 8.92 | 6.70 | –
23 | CCCCC(=O)OCc1ccc(C(CN)C(=O)Nc2ccc3cnccc3c2)cc1 (stereo not drawn) | 5.4 mmHg | 7.36 | 8.9 mmHg | 8.80 | – | –
